Reference: PubChem BioAssay (NCI)
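Growth conditions: 96-well plates. Treatment: test compound, 48 hours, 5 concentrations. Analysis: linear interpolation between bracketing concentrations; unreached endpoints set to highest concentration. TGI is the concentration that stops growth completely.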

Legend:
Assay in all cases: growth of human tumour cells (NCI), 48 h
M14 melanoma = system: M14 melanoma
SK-MEL-5 melanoma = system: SK-MEL-5 melanoma
CCRF-CEM leukemia = system: CCRF-CEM leukemia
NCI-H460 lung = system: NCI-H460 lung
IGROV1 ovarian = system: IGROV1 ovarian
COLO 205 colon = system: COLO 205 colon
OVCAR-5 ovarian = system: OVCAR-5 ovarian
MDA-MB-231 breast = system: MDA-MB-231 breast
EKVX NSCLC = system: EKVX NSCLC

Compound | TGI (M14 melanoma) [µM] | TGI (SK-MEL-5 melanoma) [µM] | TGI (CCRF-CEM leukemia) [µM] | TGI (NCI-H460 lung) [µM] | TGI (IGROV1 ovarian) [µM] | TGI (COLO 205 colon) [µM] | TGI (OVCAR-5 ovarian) [µM] | TGI (MDA-MB-231 breast) [µM] | TGI (EKVX NSCLC) [µM]
C[C@@H]1CC[C@@H](C)[C@](C)(CCc2ccoc2)C/C=C\C=C/1C(=O)O | > 50 | > 50 | > 50 | > 50 | > 50 | > 50 | > 50 | > 50 | > 50
Cc1cc(O)ccc1C1(c2ccc(F)cc2)OC(=O)c2ccccc21 (configuration not stated) | 27.1 | 24.3 | > 95.5 | 29 | 10.2 | 11.2 | 20.1 | 26.3 | 12.6
O=C(/C=C(\O)c1ccccc1)/C(=C/C(=O)c1ccccc1)NN=C(c1ccccc1)c1ccccc1 | 72.6 | 43 | 54.7 | 72.8 | > 100 | > 100 | > 100 | > 100 | > 100
C=CC(C)(C)c1cc([C@@H]2COc3cc(O)ccc3C2=O)c(O)c(O)c1OC | 46.5 | 41.1 | > 100 | > 100 | – | 63 | > 100 | 57.5 | 99.4
CN(C)Cc1cc(C(=O)/C=C/c2cccc(Cl)c2)cc(CN(C)C)c1O | 15.5 | 6.92 | 8.25 | 11.4 | 14.9 | 3.79 | 19 | 8.87 | 25.4
Cc1ccc(S(=O)(=O)c2ccc([N+](=O)[O-])o2)cc1 | 3.82 | 23 | 1.21 | 33.4 | 3.37 | 2.27 | 4.77 | 4.78 | 7.79
COc1cc2c(cc1C)NC(=O)/C2=C\c1ccncc1 | 12.9 | 8.47 | > 100 | 41.7 | 6.94 | > 100 | 29.1 | – | 25.8
COc1cc(/C=N\NC(=O)C[N+](C)(C)C)cc(OC)c1OC | > 10 | > 10 | > 10 | – | > 10 | > 10 | > 10 | > 10 | –
N#CC12C(=O)N3C(=NC(c4ccccc4)NC3c3ccccc3)C1(C#N)C(c1ccccc1)NC1=C2CCCC1 (configuration not stated) | > 100 | > 100 | 77.8 | > 100 | > 100 | > 100 | > 100 | > 100 | > 100
CN(C)C(=O)C(F)(F)C(c1ccc(Br)cc1)C1C(=O)N(C)C(=O)N(C)C1=O (configuration not stated) | > 100 | > 100 | > 100 | > 100 | – | > 100 | > 100 | > 100 | > 100
N=C(N)SCCCN | 14.2 | 30.1 | 9.2 | 15.8 | 15.6 | 29.5 | > 100 | 12.1 | > 91.4
Oc1ccc(Cl)cc1C1=N/C(=N\C/N=C2\N=C(c3cc(Cl)ccc3O)CC(c3ccccc3)N2)NC(c2ccccc2)C1 (configuration not stated) | > 100 | > 100 | > 100 | > 100 | > 100 | > 100 | > 100 | > 100 | > 100
CC(NNC(=O)c1ccncc1)c1ccc(Cl)c(Cl)c1 (configuration not stated) | > 100 | > 100 | > 100 | > 100 | > 100 | > 100 | > 100 | > 100 | > 100
O=C(O)c1cc(Cl)cc2c1NC1(N2)C(=O)Nc2ccccc21 (configuration not stated) | > 100 | > 100 | > 100 | > 100 | > 100 | > 100 | > 100 | > 100 | > 100
CC(=O)CC(C)(C)NC(=O)[C@@]1(O)CC[C@H]2[C@@H]3CCC4=CC(=O)CC[C@@H]4[C@H]3CC[C@@]21C | > 100 | > 100 | > 100 | > 100 | > 100 | > 100 | > 100 | > 100 | > 100
CCOC(=O)c1c(N2CCOCC2)[nH]c(=O)c(C(c2cccs2)c2c(O)c(C(=O)OCC)c(N3CCOCC3)[nH]c2=O)c1O | > 100 | > 100 | > 100 | > 100 | – | > 100 | > 100 | > 100 | > 100
CC(=O)O[C@H]1CN(S(=O)(=O)c2ccc(C)cc2)C[C@@H]1C1CCCCC1 | 37.3 | 31.9 | > 100 | > 100 | 40.9 | > 100 | > 100 | 82.7 | 52.8
N#CC1(c2ccccc2)CCN(C2(c3ccccc3)CCCCC2)CC1 | > 100 | > 100 | > 100 | – | > 100 | > 100 | > 100 | > 100 | > 100
O=C1c2ccccc2-c2nc(-c3ccccc3)cc3c2c1nc1ccccc13 | 18.3 | 13.3 | 28.2 | – | 23 | 65.3 | 61.4 | 59.3 | 88.3
CSc1ncc2c(n1)-c1ccccc1OC2NC(C)(C)C (configuration not stated) | > 100 | – | > 100 | > 100 | – | > 100 | > 100 | > 100 | > 100
N#Cc1c(Nc2nc3ccccc3s2)c2ccccc2n2c1nc1ccccc12 | > 100 | > 100 | – | > 100 | > 100 | > 100 | > 100 | > 100 | > 100
CC1(C)CCCCCCCCCC(C)(CCCCCCCCCCCCO)C1=O (configuration not stated) | – | 35.3 | 50.7 | 33.4 | 33.7 | 62.7 | 34.1 | 29.9 | 34.8
CCCCc1ccc(-n2sc3ncccc3c2=O)cc1 | 26.8 | 26.4 | – | 26 | 33.3 | 33.3 | 40.6 | 32 | 25.2
COc1ccc2c(c1OC)C(=O)O[C@@H]2[C@H]1c2cc3c(cc2CCN1C)OCO3 | > 100 | > 100 | – | > 100 | > 100 | > 100 | > 100 | > 100 | > 100
